Laboratory results from patent publication US20080199518A1, “Controlled-release formulation of piperazine-piperidine antagonists and agonists of the 5-HT1A receptor having enhanced intestinal dissolution” (priority 2006, published 2008).
Like-named read-outs stand apart in the source and are kept apart here.

Legend:
physchem = format: physicochemical
Experimental: The solubility of one of the compounds described herein, 5-fluoro-8-{4-[4-(6-methoxyquinolin-8-yl)piperazin-1-yl]piperidin-1-yl}quinoline, as a function of pH was determined experimentally. In the study, suspensions of about 0.5-40 mg/mL of the compound were prepared in water and various concentrations of hydrochloric acid and sodium hydroxide. The suspensions were measured for pH after equilibration at ambient temperature. The suspensions were then filtered through a suitable filter for concentrated samples and centrifuged for lower concentrations, with confirmation that the supernatants were particulate-free by laser. The filtrates were then analyzed by HPLC.

[1] = not told

solubility (physchem; pH greater than about six)	solubility (physchem; water, thermodynamic from solid, trisuccinate salt, aqueous, read-out: aqueous solubility) [µg/mL]	solubility around neutral pH of the lower gastrointestinal tract (physchem)	water solubility (physchem)	permeability [1]	SMILES
sub-microgram per milliliter level	~1000				COc1cc(N2CCN(C3CCN(c4ccc(F)c5cccnc45)CC3)CC2)c2ncccc2c1.O=C(O)CCC(=O)O.O=C(O)CCC(=O)O.O=C(O)CCC(=O)O [5-fluoro-8-{4-[4-(6-methoxyquinolin-8-yl)piperazin-1-yl]piperidin-1-yl}quinoline trisuccinate]
		less than 1 μg/mL	approximately 0.04 μg/mL	high permeability	COc1cc(N2CCN(C3CCN(c4ccc(F)c5cccnc45)CC3)CC2)c2ncccc2c1 [5-fluoro-8-{4-[4-[(6-methoxyquinolin-8-yl)piperazin-1-yl]piperidin-1-yl}quinoline]
